Four compounds from BindingDB's records for doi:10.1002/cbic.201600673 (Université de Nantes, 2017) can be followed below.

Some targets named below: Galectin-3 (Homo sapiens, UniProt P17931); Galectin-7 (Homo sapiens, UniProt P47929); Galectin-1 [C3S] (Human, UniProt P09382, C3S).
What all share (assay): Fluorescence Polarization Assay
Background: In fluorescence polarisation assays a small probe gives low polarisation when free and higher when bound to something large.

Chain of Galectin-1 [C3S] (P09382 2-135 C3S limits assumed): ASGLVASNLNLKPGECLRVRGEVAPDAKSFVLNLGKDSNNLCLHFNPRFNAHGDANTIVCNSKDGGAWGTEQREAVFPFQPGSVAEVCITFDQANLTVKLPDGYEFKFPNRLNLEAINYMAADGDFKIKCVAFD
Chain of Galectin-3 (P17931 whole entry): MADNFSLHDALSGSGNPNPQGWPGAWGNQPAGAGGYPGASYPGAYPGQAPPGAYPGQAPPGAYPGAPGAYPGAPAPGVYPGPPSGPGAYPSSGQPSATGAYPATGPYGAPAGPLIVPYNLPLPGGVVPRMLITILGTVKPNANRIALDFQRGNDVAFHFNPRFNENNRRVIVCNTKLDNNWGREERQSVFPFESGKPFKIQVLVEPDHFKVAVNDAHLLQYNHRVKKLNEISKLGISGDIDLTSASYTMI
Chain of Galectin-7 (P47929 whole entry): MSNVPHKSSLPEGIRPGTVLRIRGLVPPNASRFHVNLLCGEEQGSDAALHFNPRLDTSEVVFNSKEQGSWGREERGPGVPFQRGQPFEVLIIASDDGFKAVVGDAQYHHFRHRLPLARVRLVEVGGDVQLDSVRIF

For orientation: Kd means the equilibrium constant for the complex coming apart. Low readings indicate a tighter complex, high ones a looser complex. As to `COc1cccc(C(=O)NC2C(O)[C@H](O[C@@H]3OC(CO)[C@H](O)C(OCc4ccc5ccccc5c4)C3O)C(CO)O[C@H]2OCCNC(=O)CCCCCN2C(=O)C=CC2=O)c1` (stereo partly drawn) [2-[6-Maleimide)caproyl]ethyl [3-O-(2-naphthyl)methyl-β-D-galactopyranosyl]-(1-4)-2-deoxy-2-(3-methoxybenzamido)-β-D-glucopyranoside (13)], the Kd on Galectin-3 (4 °C) was 0.014 µM; on Galectin-3 (25 °C) it was 0.082 µM; at Galectin-7 (4 °C), 21 µM; on Galectin-7 (25 °C), 129 µM; on Galectin-1 [C3S] (4 °C) it was 16 µM; on Galectin-1 [C3S] (25 °C), 43 µM.
`COc1cccc(COC2C(O)[C@H](O[C@@H]3C(CO)O[C@@H](N=[N+]=[N-])C(NC(=O)c4cccc(OC)c4)C3O)OC(CO)[C@@H]2O)c1` (stereo partly drawn) [4-O-[3-O-(3-methoxybenzyl)-β-D-galactopyranosyl)]-1-azido-1,2-dideoxy-2-(3-methoxybenzamido)-β-D-glucopyranose (1)]: the dissociation constant (Kd) on Galectin-3 (4 °C) was 0.66 µM; at Galectin-3 (25 °C), 3.27 µM; on Galectin-7 (4 °C), 86 µM; at Galectin-1 [C3S] (4 °C), 23 µM.
`OCC1O[C@@H](S[C@@H]2OC(CO)[C@H](O)C(n3cc(-c4cccc(F)c4)nn3)C2O)C(O)C(n2cc(-c3cccc(F)c3)nn2)[C@H]1O` (stereo not given in full) [TD139] registered a Kd on Galectin-7 (4 °C) of 32 µM. That is a double-digit micromolar value.
On to `COc1cccc(C(=O)CC2C(O)[C@H](O[C@@H]3OC(CO)[C@H](O)C(OCc4ccc5ccccc5c4)C3O)C(CO)O[C@H]2OCCN=[N+]=[N-])c1` (stereo partly drawn) [[3-O-(2-naphthyl)methyl-β-D-galactopyranosyl]-(1-4)-2-deoxy-2-(3-methoxybenzamido)-β-D-glucopyranoside (11)], for which the Kd at Galectin-3 (4 °C) stood at 0.59 µM; on Galectin-3 (25 °C), 2.99 µM; on Galectin-7 (4 °C), 90 µM; at Galectin-1 [C3S] (4 °C) it was 27 µM.
